The results in this text go back to patent US20110151031A1, “COMPOSITIONS AND METHODS FOR UTILIZING THE SAME” (DBC, LLC, priority 2008, published 2011).

A short description of assay [1]: Superoxide dismutase (SOD) activity by ESR in xanthine and xanthine-oxidase system. Format: biochemical. As to the method:
(§1) In this example, free radical-scavenging ability was determined as an indicator of antioxidant action. Specifically, free radicals produced by xanthine oxidase were determined by 1,1-diphenyl-2-picrylhydrayil (DPPH, Aldrich). First, xanthine oxidase (Aldrich) was dissolved in 0.01 M phosphate buffer. Hypoxanthine was added to this solution, and the solution was warmed at 37° C. to generate free radicals. To this solution, the composition of Example 6 was added. Further, 0.1 M DPPH solution was added to determine absorbance at 520 nm. Superoxide dismutase (SOD) activity was also determined using Electron Spin Resonance (ESR) in xanthine and xanthine-odixase system. In both cases, vitamin E was used as a positive control.

Assay [2] can be described thus: DPPH radical scavenging test. The class given is biochemical. The settings on record: Example 6 at a dose of 0.1 mg/ml; absorbance at 520 nm. As to the method:
as §1

In assay [1], vitamin E [VitaminE] showed an SOD activity of 90 units/g. Further, in assay [2], the “free radical-scavenging ability (DPPH)” value came to 460 units/g.
